Results published in patent publication US20060100243A1 (priority 2004, published 2006).
Entries after “also recorded” stand apart in the source; their conditions may differ. Like-named read-outs stand apart in the source and are kept apart here.

Legend:
[1] = target: T1, recombinant human dopamine transporter (Homo sapiens, UniProt Q01959); assay: [125I]RTI-55 binding, dopamine transporter in HEK 293 cells; settings: for Ki: RR/SS racemates table, HEK 293 cells
T1 construct: expressed in transfected cells
T1 sequence (Q01959 whole entry): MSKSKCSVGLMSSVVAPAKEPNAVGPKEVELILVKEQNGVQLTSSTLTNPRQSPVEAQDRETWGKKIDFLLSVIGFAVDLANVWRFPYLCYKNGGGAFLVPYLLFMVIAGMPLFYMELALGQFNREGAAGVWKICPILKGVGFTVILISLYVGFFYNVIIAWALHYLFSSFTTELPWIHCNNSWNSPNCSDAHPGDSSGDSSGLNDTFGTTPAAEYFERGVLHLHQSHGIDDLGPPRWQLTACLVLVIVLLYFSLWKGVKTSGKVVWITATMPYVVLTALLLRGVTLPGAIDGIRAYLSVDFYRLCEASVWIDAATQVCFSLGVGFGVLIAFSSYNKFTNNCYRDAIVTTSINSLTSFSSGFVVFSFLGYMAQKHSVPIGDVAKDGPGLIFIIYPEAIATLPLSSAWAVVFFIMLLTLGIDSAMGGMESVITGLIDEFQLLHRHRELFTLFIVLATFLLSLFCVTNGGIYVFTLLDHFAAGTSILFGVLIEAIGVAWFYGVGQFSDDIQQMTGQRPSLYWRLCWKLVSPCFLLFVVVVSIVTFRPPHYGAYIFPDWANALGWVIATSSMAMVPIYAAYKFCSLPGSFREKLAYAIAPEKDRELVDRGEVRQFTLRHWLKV

[2] = target: T1, recombinant human dopamine transporter; assay: dopamine reuptake inhibition in HEK 293 cells; assay type: cell-based; settings: for IC50: RR/SS racemates table, HEK 293 cells
[3] = target: T2, recombinant human norepinephrine transporter (Homo sapiens, UniProt P23975); assay: cell-based; settings: HEK 293 cells
T2 construct: expressed in transfected cells
T2 sequence (P23975 whole entry): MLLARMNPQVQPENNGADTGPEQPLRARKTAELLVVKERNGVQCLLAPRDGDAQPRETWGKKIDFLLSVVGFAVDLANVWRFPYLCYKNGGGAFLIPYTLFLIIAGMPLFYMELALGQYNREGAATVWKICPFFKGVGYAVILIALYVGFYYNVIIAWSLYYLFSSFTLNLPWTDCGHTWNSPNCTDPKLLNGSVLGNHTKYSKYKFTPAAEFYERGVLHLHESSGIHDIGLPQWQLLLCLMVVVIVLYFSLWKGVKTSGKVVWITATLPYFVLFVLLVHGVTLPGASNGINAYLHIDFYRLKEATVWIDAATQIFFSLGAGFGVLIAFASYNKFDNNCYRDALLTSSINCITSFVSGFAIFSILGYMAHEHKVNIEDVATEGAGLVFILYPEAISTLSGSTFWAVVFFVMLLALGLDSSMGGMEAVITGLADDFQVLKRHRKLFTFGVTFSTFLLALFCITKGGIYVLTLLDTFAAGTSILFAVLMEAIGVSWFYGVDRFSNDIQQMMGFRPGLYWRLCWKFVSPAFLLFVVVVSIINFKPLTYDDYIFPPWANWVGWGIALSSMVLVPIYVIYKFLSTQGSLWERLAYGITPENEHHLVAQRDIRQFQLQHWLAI

[4] = target: T2, recombinant human norepinephrine transporter; assay: biochemical; assay type: binding; settings: HEK 293 cells
[5] = system: male Swiss-Webster mice; assay: dose response study of induced locomotor stimulation; settings: for time of occurrence of stimulant effects following injection: at the active doses
[6] = target: T3, recombinant human serotonin transporter (Homo sapiens, UniProt P31645); assay: biochemical; assay type: binding
T3 construct: expressed in transfected cells
T3 sequence (P31645 whole entry): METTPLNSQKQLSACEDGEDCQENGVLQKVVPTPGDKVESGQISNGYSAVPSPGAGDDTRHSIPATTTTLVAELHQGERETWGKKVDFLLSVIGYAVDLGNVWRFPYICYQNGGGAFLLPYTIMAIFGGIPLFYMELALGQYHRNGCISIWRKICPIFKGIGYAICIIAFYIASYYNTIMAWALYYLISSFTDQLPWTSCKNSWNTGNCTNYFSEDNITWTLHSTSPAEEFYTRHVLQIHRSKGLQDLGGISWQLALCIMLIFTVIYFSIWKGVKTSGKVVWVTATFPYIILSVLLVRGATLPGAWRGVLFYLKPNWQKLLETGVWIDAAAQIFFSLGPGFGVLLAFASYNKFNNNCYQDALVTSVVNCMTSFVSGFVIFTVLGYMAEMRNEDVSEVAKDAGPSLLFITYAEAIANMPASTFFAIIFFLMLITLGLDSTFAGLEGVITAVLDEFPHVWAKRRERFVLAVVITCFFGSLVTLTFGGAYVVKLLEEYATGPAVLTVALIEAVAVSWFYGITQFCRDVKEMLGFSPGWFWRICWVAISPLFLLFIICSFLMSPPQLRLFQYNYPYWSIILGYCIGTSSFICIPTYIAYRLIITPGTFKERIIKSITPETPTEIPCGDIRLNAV

[7] = target: T3, recombinant human serotonin transporter; assay: serotonin (5HT) reuptake inhibition in HEK 293 cells; assay type: cell-based; settings: SEROTONIN 5HT REUPTAKE (IC50), HEK 293 cells
[8] = prescribed doses; cited from earlier work
[9] = RR/SS racemates table, read-out: NOREPINEPHRINE NE REUPTAKE (IC50)
[10] = RR/SS racemates table, read-out: NOREPINEPHRINE [I125]-RTI-55 BINDING (Ki)

SMILES: CC(C)CC(c1ccc(Cl)cc1)C1CCCCN1 (racemic) [Sample D]
- Ki ([1]; read-out: DOPAMINE [I125]-RTI-55 BINDING (Ki)): 16 ± 4 nM
- potency at binding to the dopamine transporter and blocking dopamine reuptake ([1]; in words, binding and reuptake, compared with MPH / other samples): enhanced potency; also recorded: most potent
- IC50 ([2]; read-out: DOPAMINE DA REUPTAKE (IC50)): 8.6 ± 2.9 nM
- IC50 [3, 9]: 120 ± 40 nM
- Ki [4, 10]: 840 ± 130 nM
- duration of stimulant effects ([5]; mice, IP, 3 mg/kg): up to 4 hours
- duration of stimulant effects ([5]; mice, IP, 10 mg/kg): ≤ 5 h
- duration of stimulant effects ([5]; mice, IP, 30 mg/kg): over 8 hours
- time of occurrence of stimulant effects following injection ([5]; mice, IP): at least 20 minutes

SMILES: CC(C)CC(c1ccc(Cl)c(Cl)c1)C1CCCCN1C (single isomer, unassigned) [O]
- Ki ([1]; DOPAMINE [I125]-RTI-55 BINDING (Ki)): 6.6 ± 0.9 nM
- IC50 ([2]; DOPAMINE DA REUPTAKE (IC50)): 13 ± 4 nM
- NE/DA REUPTAKE ([2]; ratio of NE/DA reuptake IC50, selectivity for dopamine over norepinephrine transporter): 2.2
- IC50 [3, 9]: 29 ± 3 nM
- Ki [4, 10]: 190 ± 60 nM
- Ki ([6]; RR/SS racemates table, HEK 293 cells, read-out: SEROTONIN [I125]-RTI-55 BINDING (Ki)): 1.3 ± 0.2 µM
- IC50 ([7]; RR/SS racemates table): 1.4 ± 0.5 µM

SMILES: COC(=O)C(c1ccccc1)C1CCCCN1 (stereo not drawn) [MPH, methylphenidate, reference compound]
- IC50 ([3]; NORE[…] REUPTAKE (IC50), RR/SS racemates table): 38 ± 4 nM
- IC50 ([3]; NORE[…] REUPTAKE (IC50), RS/SR racemates table): 38 ± 4 nM
- Ki ([4]; NOREPINEPHRINE [I125]-RTI-55 BINDING (Ki), RR/SS racemates table): 1800 ± 800 nM
- Ki ([4]; NOREPINEPHRINE [I125]-RTI-55 BINDING (Ki), RS/SR racemates table): 1800 ± 800 nM
- time of occurrence of stimulant effects following injection ([5]; mice, IP): ≤ 10 min
- duration of stimulant effects ([5]; mouse, in vivo): up to 4 hours
- time of maximum drug concentration after oral administration [8]: about two hours
- binding to or reuptake at the serotonin transporter [6]: neither MPH nor the MPH analogs demonstrated significant binding to or reuptake at the serotonin transporter
- Ki ([6]; SEROTONIN [I125]-RTI-55 BINDING (Ki)): 40 ± 8 µM
- IC50 ([7]; RR/SS racemates table): 55 ± 16 µM
- IC50 ([7]; RS/SR racemates table): 55 ± 16 µM

SMILES: COC(=O)[C@H]1[C@@H](OC(=O)c2ccccc2)C[C@@H]2CC[C@H]1N2C [cocaine]
- period of maximal stimulant effects ([5]; mice, IP, 20 mg/kg): ≤ 30 min
- duration of stimulant effects ([5]; mice, IP, 10, 20, and 40 mg/kg): up to 2 hours
- time of occurrence of stimulant effects following injection ([5]; mice, IP): ≤ 10 min
